{"source": "paper PMC4245125", "about": "“Pharmacological and Behavioral Characterization of D-473, an Orally Active Triple Reuptake Inhibitor Targeting Dopamine, Serotonin and Norepinephrine Transporters” (PLoS ONE, 2014)", "key": {"[1]": {"experiment": "Plasma concentration after oral administration in rats", "format": "in vivo", "conditions": "rat, male Sprague-Dawley rats, 25 mg/kg PO", "experimental": "Sample preparation: Following oral administration of 25 mg/kg of D-473 and D-142 in male Sprague Dawley rats, the blood samples were collected at different time points over a period of 8 h for analysis. Concentrations of D-473 and D-142 in plasma were quantitated using a set of calibration standards prepared in blank matrix that were processed in parallel. Plasma concentration evaluation was carried out by the CRO, Absorption System, PA. Additionally, brain uptake studies of D-473 were carried out at three different time points (2, 4 and 6 h) following oral administration of 25 mg/kg D-473. Concentrations of D-473 in rat brain were quantitated using a set of calibration standards which were prepared in blank brain homogenate matrix on the day of analysis. The standard samples (5, 10, 25, 100, 500, 1000, and 2000 ng/mL) for calibration curve were prepared by spiking 45 µL of blank rat plasma with 5 µL of appropriate working dilution of D-473 in acetonitrile. The bioanalytical sample preparation for brain and plasma analysis followed by quantification of test compounds entailed the addition of 250 µL acetonitrile to every 50 µL of standard and analyte samples to precipitate tissue plasma proteins and tissue macromolecules. These mixtures were then vortexed for 15 min at 1400 rpm. The suspensions were then clarified by centrifugation (18000 g, 10 min at 4°C), and each 150 µL of the resulting supernatant was mixed well with 50 µL 0.1% formic acid in 50/50 (v/v) ACN/water solution for about 10 sec. The mixtures were again centrifuged (18000 g, 10 min at 4°C) before 100 µL of clear supernatant were transferred to auto sampler vials for LC-MS/MS analysis.\nThe analysis of blood sample was carried out by the CRO Absorption system, PA. Briefly, the analysis was carried out by Waters Acquity UPLC equipped with PE Sciex API4000 mass spectrometer. Reverse phase Waters Acquity BEH Phenyl Column 1.7micron, 2.1×30 mm column was used for analysis. 5 µL of sample solutions were injected with a flow rate 1 mL/min and the samples were eluted with gradient elution using solvent A (10% buffer: 90% water) and solvent B (10% buffer: 90% acetonitrile). Buffer used was 40 mM Ammonium Formate Buffer, pH 3.5. Pharmacokinetic prarameters were estimated by a non-compartmental model using WinNonlin v5.2.1 software."}, "hNET": {"biological_target": "hNET (Homo sapiens, UniProt P23975)", "sequence (P23975 whole entry)": "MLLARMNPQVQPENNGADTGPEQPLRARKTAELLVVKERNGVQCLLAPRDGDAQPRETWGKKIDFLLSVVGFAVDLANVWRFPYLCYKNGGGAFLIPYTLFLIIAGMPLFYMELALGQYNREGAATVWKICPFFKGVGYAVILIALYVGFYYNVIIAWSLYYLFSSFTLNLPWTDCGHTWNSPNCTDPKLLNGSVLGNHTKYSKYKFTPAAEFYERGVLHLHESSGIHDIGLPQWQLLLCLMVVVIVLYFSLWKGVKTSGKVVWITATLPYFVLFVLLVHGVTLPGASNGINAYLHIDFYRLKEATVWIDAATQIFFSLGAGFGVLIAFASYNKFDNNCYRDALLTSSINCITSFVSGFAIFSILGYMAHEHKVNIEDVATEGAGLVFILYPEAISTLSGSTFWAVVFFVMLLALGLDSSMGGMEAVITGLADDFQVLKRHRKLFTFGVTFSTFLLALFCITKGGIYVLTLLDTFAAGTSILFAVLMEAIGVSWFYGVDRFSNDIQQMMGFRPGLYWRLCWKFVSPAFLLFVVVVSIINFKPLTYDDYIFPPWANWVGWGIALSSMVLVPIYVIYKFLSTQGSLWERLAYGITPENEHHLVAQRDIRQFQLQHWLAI", "experiment": "Inhibition of [3H]DA uptake by cloned human NET in HEK293 cells", "conditions": "NET uptake, Ki, nM [3H]DA, HEK293 cells expressing hNET; average±S.E.M., 3 to 10 determinations"}, "[2]": {"conditions": "found earlier by the authors; no reference given; cited from earlier work"}, "hSERT": {"biological_target": "hSERT (Homo sapiens, UniProt P31645)", "sequence (P31645 whole entry)": "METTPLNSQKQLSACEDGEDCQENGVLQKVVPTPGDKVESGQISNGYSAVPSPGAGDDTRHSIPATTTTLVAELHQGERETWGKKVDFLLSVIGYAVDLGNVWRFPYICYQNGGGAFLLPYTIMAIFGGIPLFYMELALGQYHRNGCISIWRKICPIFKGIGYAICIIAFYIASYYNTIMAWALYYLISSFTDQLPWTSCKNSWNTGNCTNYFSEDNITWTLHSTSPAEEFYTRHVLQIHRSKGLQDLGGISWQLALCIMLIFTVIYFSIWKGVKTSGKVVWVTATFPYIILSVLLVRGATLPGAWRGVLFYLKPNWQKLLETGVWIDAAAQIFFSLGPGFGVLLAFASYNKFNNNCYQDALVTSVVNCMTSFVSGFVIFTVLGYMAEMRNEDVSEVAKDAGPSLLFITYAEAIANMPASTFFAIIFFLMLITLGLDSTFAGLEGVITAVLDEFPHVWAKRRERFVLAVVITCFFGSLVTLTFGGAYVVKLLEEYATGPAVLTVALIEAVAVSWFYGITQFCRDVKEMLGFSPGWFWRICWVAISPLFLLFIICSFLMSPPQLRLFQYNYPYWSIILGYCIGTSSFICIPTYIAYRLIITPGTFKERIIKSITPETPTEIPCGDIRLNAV", "experiment": "Inhibition of [3H]5-HT uptake by cloned human SERT in HEK293 cells"}, "hDAT": {"biological_target": "hDAT (Homo sapiens, UniProt Q01959)", "sequence (Q01959 whole entry)": "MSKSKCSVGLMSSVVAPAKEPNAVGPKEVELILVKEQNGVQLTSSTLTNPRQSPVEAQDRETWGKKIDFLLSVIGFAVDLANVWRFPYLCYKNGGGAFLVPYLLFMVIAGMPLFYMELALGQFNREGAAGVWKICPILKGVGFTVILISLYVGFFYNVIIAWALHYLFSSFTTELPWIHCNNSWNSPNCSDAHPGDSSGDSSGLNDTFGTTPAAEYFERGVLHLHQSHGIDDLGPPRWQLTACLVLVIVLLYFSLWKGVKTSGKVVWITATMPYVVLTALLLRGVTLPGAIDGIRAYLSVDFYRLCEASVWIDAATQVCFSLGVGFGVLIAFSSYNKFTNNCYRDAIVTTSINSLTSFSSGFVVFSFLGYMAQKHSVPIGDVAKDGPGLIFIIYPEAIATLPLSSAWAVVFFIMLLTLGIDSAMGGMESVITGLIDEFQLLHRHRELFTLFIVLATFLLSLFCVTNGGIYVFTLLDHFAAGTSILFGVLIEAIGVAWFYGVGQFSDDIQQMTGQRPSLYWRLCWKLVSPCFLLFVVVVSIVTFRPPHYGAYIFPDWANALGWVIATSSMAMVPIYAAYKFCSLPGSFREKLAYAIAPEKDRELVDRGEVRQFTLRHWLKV", "experiment": "Inhibition of [3H]DA uptake by cloned human DAT in HEK293 cells", "conditions": "nM, HEK293 cells expressing hDAT, average±S.E.M., 3 to 10 determinations"}, "[3]": {"tested_on": "locomotor activity (horizontal activity)", "experiment": "Locomotor activity in rats", "format": "in vivo", "conditions": "rat; 5 mg/kg i.p.; vs vehicle (P<0.001)", "experimental": "Sprague Dawley Rats were tested at 25 mg/kg oral dose of D-473 to monitor changes in any locomotor activity in acrylic Auto-Track/Opto-Varimex-4 System (Columbus Instrument; Columbus, Ohio). The purpose was to evaluate locomotor activity of the same doses of drug that were used in the forced swim test. Rats were acclimated in the test chambers for 1 h prior to oral administration of D-473. Locomotor activity of the drug was measured for a total of two hour post administration of the drug which corresponded to the time of measurement in the forced swimming experiment. GBR 12909 was studied as a control drug known to stimulate and was administered i.p. as in published studies; vehicle was orally administered."}, "dialysate DOPAC": {"tested_on": "dialysate DOPAC", "set-up": "method as in PMID 2477259", "conditions": "DAT releaser; cited from earlier work"}}, "note": "Counter-ions that a name gives are not always drawn."}
{"molecule": "COc1ccc(CN[C@@H]2CO[C@H](C(c3ccc(F)cc3)c3ccc(F)cc3)C[C@H]2O)cc1", "note": "(as salt: hydrochloride) [Compound D-473, (2S,4R,5R)-2-(bis(4-fluorophenyl)methyl)-5-((4-methoxybenzyl)amino)tetrahydro-2H-pyran-4-ol]", "values": [{"measurement": "melting point", "result": "190 to 205", "unit": "°C"}]}
{"molecule": "COc1ccc(CN[C@@H]2CO[C@H](C(c3ccccc3)c3ccccc3)C[C@H]2O)cc1", "note": "[Compound D-142]", "values": [{"measurement": "Cmax", "setting": "[1]; 3% HPßCD in water, read-out: Average maximum plasma concentration, Cmax", "result": "125 ± 36.6", "unit": "ng/mL"}, {"measurement": "half-life", "setting": "[1]; read-out: Average half-life (converted)", "result": "2.5 ± 0.96", "unit": "h"}, {"measurement": "Ki", "setting": "hNET", "result": "21.2 ± 4.3", "unit": "nM"}, {"measurement": "Oral bioavailability", "setting": "[2]", "result": "poor oral bioavailability"}, {"measurement": "Ki", "setting": "hSERT", "result": "5.43 ± 1.4", "unit": "nM"}, {"measurement": "Ki", "setting": "hDAT", "result": "179 ± 27", "unit": "nM"}]}
{"molecule": "Fc1ccc(C(OCCN2CCN(CCCc3ccccc3)CC2)c2ccc(F)cc2)cc1", "note": "[GBR 12909, 1-[2-[bis(4-fluorophenyl)methoxy]ethyl]-4-[3-phenylpropyl]piperazine, reference compound]", "values": [{"measurement": "Locomotor activity (horizontal activity)", "setting": "[3]", "result": "significant rise"}]}
{"molecule": "CC(N)Cc1ccccc1", "note": "(stereo not drawn) [amphetamine]", "values": [{"measurement": "Reductions in DOPAC", "setting": "dialysate DOPAC", "result": "~65", "unit": "%"}]}
